SMILES strings stand for the structures.

For orientation: IC50 means the concentration needed to halve the response being measured.

This assay deals with GABA-A receptor; anion channel. Nature of the assay: Inhibition of [3H]EBOB binding at GABA-gated chloride channel NCB site in bovine brain membranes. The assay is classed as cell membranes, Bos taurus.

`CC(C)(C)C1CSC(c2ccc(C#CCO)cc2)SC1` (centres undefined) showed a half-maximal inhibitory concentration (IC50) of 76 nM. That is a double-digit nanomolar value.

`CC(C)(C)C1CSC(c2ccc(C#CCCC(=O)C=[N+]=[N-])cc2)SC1` (centres undefined) came in with an IC50 of 830 nM.

In the case of `CC(C)(C)C1CSC(c2ccc(C#CCCCO)cc2)SC1` (centres undefined), the IC50 was 410 nM.

On to `CCC#Cc1ccc(C2SCC(C(C)(C)C)CS2)cc1` (centres undefined), for which the IC50 turned out to be 690 nM.

On to `CC(C)(C)C1CSC(c2ccc(C#CC(=O)C=[N+]=[N-])cc2)SC1` (centres undefined), for which the half-maximal inhibitory concentration (IC50) came to 690 nM.

`CCCC#Cc1ccc(C2SCC(C(C)(C)C)CS2)cc1` (centres undefined): the IC50 came out at 6700 nM.

For the compound `CC#Cc1ccc(C2SCC(C(C)(C)C)CS2)cc1` (centres undefined), the 50% inhibitory concentration (IC50) came to 35 nM.

For `CC(C)(C)C1CSC(c2ccc(C#CCCP(=O)(O)O)cc2)SC1` (centres undefined), the 50% inhibitory concentration (IC50) worked out at 10 nM.

The compound `CC(C)(C)C1CSC(c2ccc(C#CCC(=O)O)cc2)SC1` (centres undefined) gave an IC50 of 23 nM.

With `CCOC(=O)CC#Cc1ccc(C2SCC(C(C)(C)C)CS2)cc1` (centres undefined), the IC50 is 460 nM.

Take `CC(O)C#Cc1ccc(C2SCC(C(C)(C)C)CS2)cc1` (centres undefined): the 50% inhibitory concentration (IC50) stood at 3100 nM.

The compound `COC(=O)C#Cc1ccc(C2SCC(C(C)(C)C)CS2)cc1` (centres undefined) displayed an IC50 of 9 nM.

For the compound `C#Cc1ccc(C2SCC(C(C)(C)C)CS2)cc1` (centres undefined), the IC50 amounted to 21 nM.

In the case of `CCOP(=O)(CCC#Cc1ccc(C2SCC(C(C)(C)C)CS2)cc1)OCC` (centres undefined), the IC50 was 3000 nM.

`COC(=O)CCC#Cc1ccc(C2SCC(C(C)(C)C)CS2)cc1` (centres undefined) came in with an IC50 of 17 nM.

The compound `CC(C)(C)C1CSC(c2ccc(C#CCCC(=O)O)cc2)SC1` (centres undefined) registered an IC50 of 5 nM.

Regarding `CC(C)(O)C#Cc1ccc(C2SCC(C(C)(C)C)CS2)cc1` (centres undefined), the half-inhibitory concentration (IC50) was over 10000 nM.

Turning to `CC(C)(C)C1CSC(c2ccc(C#CCCO)cc2)SC1` (centres undefined), the IC50 is 400 nM.

Compound `CC(C)(C)C1CSC(c2ccc(C#CC(=O)O)cc2)SC1` (centres undefined) gave an IC50 of 7 nM. Against the preceding compound, the IC50 is about 57-fold lower.

For the origin of these results see ChEMBL document CHEMBL1127158, “1,3-dithianes with acid functionalities: potent inhibitors and candidate affinity probes for the gaba-gated chloride channel” (Bioorg Med Chem Lett, 1993).
